Key:
mice with ischemic AKI [1] = assay: renal ischemia-reperfusion injury model: renal function (serum creatinine, NGAL, KIM-1); assay type: in vivo; conditions: IRI-30 min, 3 doses of 5 mg/kg, 24 hours reperfusion
Description: (§1) Mice were anesthetized with isoflurane using a vaporizer and placed on a heating pad to maintain their body temperature at 37° C. Both renal arteries were identified through dorsal incisions and clamped for 20, 30, 35, or 37 minutes. Reperfusion was confirmed visually upon release of the clamps. Surgical wounds were closed, and mice were administered 1 mL of saline i.p. The mice were kept in a warm incubator until they regained consciousness and were allowed to recover with ad libitum access to food and water. […] Serum and kidney tissue were collected 24 hours after renal IRI.
Renal function was assessed by determining the serum levels of creatinine (KB02-H1; Arbor Assays), Lipocalin-2 (NGAL; MLCN20; R&D Systems), and kidney injury molecule-1 (KIM-1; MKM100; R&D Systems) after reperfusion for 24 h.

recombinant 15-PGDH = target: T1, recombinant 15-PGDH (Homo sapiens, UniProt P15428); assay: inhibition of recombinant 15-PGDH; assay type: biochemical
T1 sequence (P15428 1-266): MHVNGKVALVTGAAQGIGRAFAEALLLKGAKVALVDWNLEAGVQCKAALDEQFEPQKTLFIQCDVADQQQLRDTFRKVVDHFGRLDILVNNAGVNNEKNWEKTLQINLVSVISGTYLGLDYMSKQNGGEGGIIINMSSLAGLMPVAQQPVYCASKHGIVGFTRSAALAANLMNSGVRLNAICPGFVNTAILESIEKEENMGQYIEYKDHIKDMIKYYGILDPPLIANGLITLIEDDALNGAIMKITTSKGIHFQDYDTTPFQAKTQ

[2] = system: PGE2 production by cell lines; assay: PGE2 production by cell lines; assay type: cell-based
[3] = chemical stability in aqueous solutions; assay type: physicochemical; conditions: over broad pH range
[4] = stability on incubation with mouse liver extracts; assay type: in vitro ADME
[5] = stability on incubation with rat liver extracts; assay type: in vitro ADME
[6] = stability on incubation with human liver extracts; assay type: in vitro ADME
mice = assay: toxicity after IP injection into mice; conditions: IP into mice at 50 mg/kg body weight
mice with ischemic AKI [7] = assay: renal IRI model: necrotic and apoptotic cell death in the outer medulla; assay type: in vivo
Description: as §1
To evaluate necrosis, 5-μm-thick paraffin sections were stained with H&E. Tubular injury was scored semi quantitatively according to a scoring system by a pathologist who examined at least 20 separate fields (×400) in the outer medulla, which is the zone most sensitive to ischemic injury. The scoring system was as follows: 0, no damage; 1, patchy isolated unicellular necrosis; 2, tubular necrosis <25%; 3, tubular necrosis 25-50%; and 4, tubular necrosis >50%. At least 20 consecutive high-power fields (magnification, ×400) per section were scored by two operators blind to the details of the experiment. To analyze the frequency of apoptosis, 5-μm-thick paraffin sections were subjected to terminal deoxynucleotidyl transferase-mediated dUTP nick-end labeling (TUNEL) assay (APT110; Millipore) according to the manufacturer's protocol. TUNEL-positive cells were counted in at least five separate fields (×640 magnification) in the outer medulla, and the apoptosis index (%, number of apoptosis cells/total number of cells) was calculated using GENASIS software.

[8] = system: HMGB1 and proinflammatory cytokines; assay: renal IRI model: HMGB1 and cytokine levels; assay type: in vivo; conditions: mice, 3 doses 5 mg/kg
Description: as §1
Inflammatory cytokine mRNA and protein levels were measured by real-time PCR and ELISA, respectively. Kidney tissue and serum were harvested after reperfusion for 24 h. Total RNA was extracted from frozen kidney tissue using TRIzol reagent (15596018; Invitrogen), according to the manufacturer's protocol. RNA was converted to cDNA using oligo-dT primers. IL-17, TNF-α, and […] levels were determined by real-time PCR with SYBR green PCR Master Mix and the primers listed in Table 1. For ELISA, frozen kidney tissues were homogenized in phosphate buffer. Serum IL-17 (M1700; R&D Systems), TNF-α (MTAOOB; R&D Systems), and IL-10β (MLBOOC; R&D Systems) were measured using commercial ELISA kits according to the manufacturer's instructions.

[9] = system: renal arterioles in the outer medulla; assay: renal vasodilatation in the outer medulla (α-SMA-positive arteriole area); assay type: in vivo, mice; conditions: IRI mice; α-SMA staining
Description: as §1
To quantify vasodilation, the inner arteriole area of the outer medulla was determined using α-SMA-stained sections. After counterstaining with Mayer's hematoxylin, the inner area of α-SMA-positive vessels in the outer medulla (×25) was measured using ImageJ. The results are expressed as average areas of renal arteries outer medulla.

[10] = system: PGE2 receptors (EP1, EP2, EP3 and EP4) and adenosine receptor (A2A); assay: renal IRI model: PGE2 receptors (EP1-EP4) and adenosine A2A receptor levels; assay type: in vivo, mice; conditions: kidney tissue, IRI mice
Description: as §1
PGE2 receptors (EP1, EP2, EP3 and EP4) and adenosine receptor (A2A) mRNA levels were determined by real-time PCR with SYBR green PCR Master Mix and the primers listed in Table 1. Their protein levels were determined by western blotting assay and immunofluorescence analysis.

mice with ischemic AKI [11] = assay: survival and body weight over 7 days after renal IRI; assay type: in vivo; conditions: bilateral IRI 30 minutes, 5 mg/kg i.p. before and twice daily over 7 days, POD7
Description: (A) Experimental setup for toxicity. Ischemic AKI induced by bilaterally clamping the renal arteries for 30 minutes, followed by reperfusion. […] (n=10 per group). (B, C) Survival curves and body weight over 7 days. Kaplan-Meier analysis of survival stratified by AKI stage. Data are means±SEM. *P<0.05 vs. corresponding BI30_vehicle.

Structure (SMILES): CCCCC[C@H](O)/C=C/[C@H]1[C@H](O)CC(=O)[C@@H]1CCCCCCC(=O)O [PGE1, reference compound]
- renal protection from IRI (serum NGAL, creatinine, KIM-1) (mice with ischemic AKI [1]): less effective for renal protection

Structure (SMILES): CCCCC[C@H](O)/C=C/[C@H]1[C@H](O)CC(=O)[C@@H]1C/C=C\CCCC(=O)O [PGE2, reference compound]
- renal protection from IRI (serum NGAL, creatinine, KIM-1) (mice with ischemic AKI [1]): less effective for renal protection

Structure (SMILES): CCCC[S+]([O-])c1sc2nc(-c3nccs3)cc(-c3cnc(C)n3C)c2c1N (stereo not drawn) [formula (VII)]
- concentration at which recombinant 15-PGDH is inhibited (recombinant 15-PGDH): 3 nM
- concentration at which PGE2 production by cell lines is increased [2]: 20 nM
- chemical stability in aqueous solutions [3]: chemically stable
- chemical stability when incubated with mouse liver extracts [4]: chemically stable
- chemical stability when incubated with rat liver extracts [5]: chemically stable
- chemical stability when incubated with human liver extracts [6]: chemically stable
- immediate toxicity over 24 hours (mice): no immediate toxicity

Structure (SMILES): COc1ccc2c(c1)c(CC(=O)O)c(C)n2C(=O)c1ccc(Cl)cc1 [indomethacin, reference compound]
- renal protection from IRI (serum NGAL, creatinine, KIM-1) (mice with ischemic AKI [1]): significantly aggravated IRI
- tissue congestion in the outer medulla (gross pathology) (mice with ischemic AKI [7]; 3 doses 5 mg/kg i.p., POD1, vs IRI-vehicle): worsened
- renal injury (histopathology, tubular injury) (mice with ischemic AKI [7]; 3 doses 5 mg/kg, POD1): further exacerbated renal injury
- induction of inflammatory cytokines [8]: increased induction of inflammatory cytokines
- increase of HMGB1 compared to the IRI-vehicle group ([8]; kidney tissue, western blot): 50%
- renal arteriole area in the outer medulla [9]: significantly decreased
- EP4 mRNA [10]: reduced
- increase of levels of mRNA for EP1 [10]: 40%
- reduced survival vs vehicle control (mice with ischemic AKI [11]): 25%
